Results published in patent publication US20210348164A1, “ENDOGENOUS CYTOPLASMIC ALU COMPLEMENTARY DNA IN AGE-RELATED MACULAR DEGENERATION” (University of Virginia Patent Foundation, priority 2018, published 2021).

Tested on: NLRP3 inflammasome
Assay: Caspase-1 activation in bone marrow-derived macrophages treated with LPS and ATP (immunoblot)
Assay type: cell-based
Conditions: primary mouse BMDM; LPS and ATP stimulation
Method: Western blotting. Cells and tissue were homogenized in RIPA buffer (Sigma-Aldrich) with protease and phosphatase inhibitors (Roche) or lysed directly in Laemmli buffer. Protein concentration was determined using Pierce BCA Protein Assay Kit (Thermo Fisher Scientific). Equal quantities of protein (10-50 μg) prepared in Laemmli buffer were resolved by SDS-PAGE on NOVEX® Tris-Glycine Gels (Invitrogen), or MINI-PROTEAN® TGX™ Precast Protein Gels (Bio-Rad Laboratories, Inc., Hercules, Calif., United States of America) and transferred onto Immobilon-FL PVDF membranes (0.2 or 0.45 μm; MilliporeSigma, Burlington, Mass., United States of America). The transferred membranes were blocked in ODYSSEY® Blocking Buffer (PBS) for 1 hour at room temperature and then incubated with primary antibody at 4° C. overnight. Immunoreactive bands were visualized using species-specific secondary antibodies conjugated with IRDYE®. The blot images were captured on ODYSSEY® imaging systems. […]

With `CC(C)Nc1cccnc1N1CCN(C(=O)c2cc3cc(NS(C)(=O)=O)ccc3[nH]2)CC1` [DLV, delavirdine] the “caspase-1 activation / NLRP3 inflammasome activation” value was “did not inhibit NLRP3 inflammasome activation”.
In the case of `O=C1Nc2ccc(Cl)cc2[C@@](C#CC2CC2)(C(F)(F)F)O1` [EFV, efavirenz], the “caspase-1 activation / NLRP3 inflammasome activation” value is reported as “did not inhibit NLRP3 inflammasome activation”.
For `Cc1ccnc2c1NC(=O)c1cccnc1N2C1CC1` [NVP, nevirapine], the “caspase-1 activation / NLRP3 inflammasome activation” value was “does not inhibit”.
